Activity calls are given as the source filed them.
Assays:
[1] = test system: H4; assay: Luminescence Cell-Based Dose Response HTS to Identify Activators of 5'UTR Stem-Loop Driven Prion Protein mRNA Translation in H4 Neuroglioblastoma Cells. [Related pubchem assays: 1829 (Project Summary), 1814 (Primary HTS)]; assay type: functional; settings: Homo sapiens
[2] = Luminescence Cell-Based Dose Response HTS to Identify Activators of Luciferase Translation or Activity in H4 […] Cells. [Related pubchem assays: 1829 (Project Summary), 1814 (Primary HTS)]; assay type: functional
[3] = Luminescence Cell-Based Dose Response to Identify Activators of 5'UTR Stem-Loop Driven Prion Protein mRNA Translation in H4-C Neuroglioblastoma Cells. [Related pubchem assays: 1829 (Project Summary), 1814 (Primary HTS)]; assay type: functional
[4] = Luminescence Cell-Based Dose Response to Identify Activators of Luciferase Translation or Activity in H4-C Neuroglioblastoma Cells. [Related pubchem assays: 1829 (Project Summary), 1814 (Primary HTS)]; assay type: functional
[5] = Luminescence Cell-Based Dose Confirmation to Identify Activators of 5'UTR Stem-Loop Driven Alpha-Synuclein mRNA Translation in H4 Neuroglioblastoma Cells. [Related pubchem assays: 1829 (Project Summary), 1814 (Primary HTS)]; assay type: functional
[6] = viability of uninfected HEp-2 cells – cell-based, HTS, cytotoxicity control for RSV inhibitor project, dose response (AID 2410); assay type: functional; settings: human respiratory syncytial virus
[7] = antiviral protection against BTV-induced cell death – arbovirus, BSR cells, confirmation (AID 1250); assay type: functional;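 further: protection from viral cytopathic effect measured as cell viability by ATP luminescence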
[8] = molecular target: T1, Calpain-2 catalytic subunit (Sus scrofa, UniProt P43367); assay: m-calpain protease blockers, concentration series – biochemical, fluorogenic peptide substrate, dose response (AID 1420); assay type: functional
T1 sequence (P43367 whole entry): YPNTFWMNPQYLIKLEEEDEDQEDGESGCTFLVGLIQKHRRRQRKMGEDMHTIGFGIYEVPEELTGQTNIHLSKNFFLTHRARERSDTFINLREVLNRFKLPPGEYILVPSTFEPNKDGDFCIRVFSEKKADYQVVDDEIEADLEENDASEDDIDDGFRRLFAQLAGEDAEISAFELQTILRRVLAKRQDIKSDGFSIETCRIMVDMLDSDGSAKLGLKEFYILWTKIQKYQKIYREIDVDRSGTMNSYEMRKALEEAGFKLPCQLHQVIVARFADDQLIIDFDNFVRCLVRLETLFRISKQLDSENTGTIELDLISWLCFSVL

[9] = molecular target: T2, High affinity choline transporter 1 (Homo sapiens, UniProt Q9GZV3); assay: human choline transporter blockers, potency – cell-based, 5-point CRC, membrane potential dye, dose response (AID 504840); assay type: functional
T2 sequence (Q9GZV3 whole entry): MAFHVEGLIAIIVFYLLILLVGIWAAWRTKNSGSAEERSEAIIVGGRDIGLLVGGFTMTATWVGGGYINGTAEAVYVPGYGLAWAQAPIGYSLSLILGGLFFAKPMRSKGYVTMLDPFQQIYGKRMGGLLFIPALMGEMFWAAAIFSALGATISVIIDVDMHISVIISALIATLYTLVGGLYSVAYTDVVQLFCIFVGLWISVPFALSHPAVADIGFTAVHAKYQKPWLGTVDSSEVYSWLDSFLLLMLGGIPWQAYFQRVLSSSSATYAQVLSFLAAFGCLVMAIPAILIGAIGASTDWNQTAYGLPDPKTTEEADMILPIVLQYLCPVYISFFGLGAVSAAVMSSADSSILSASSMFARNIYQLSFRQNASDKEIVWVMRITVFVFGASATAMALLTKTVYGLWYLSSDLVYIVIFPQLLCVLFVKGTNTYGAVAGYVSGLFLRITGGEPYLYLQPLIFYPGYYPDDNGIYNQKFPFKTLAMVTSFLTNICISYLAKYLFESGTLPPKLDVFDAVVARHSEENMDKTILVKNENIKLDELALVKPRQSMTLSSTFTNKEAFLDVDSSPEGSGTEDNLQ

[10] = Trypanosoma cruzi growth suppression in host cells – NIH3T3 host cells, beta-gal luminescence, confirmation (AID 2044); assay type: functional, cell-based;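 further: intracellular parasites grown in NIH/3T3 mouse fibroblasts as host cells; luminescent beta-galactosidase reporter signal from transgenic T. cruzi replicating inside host cells; inhibitors lower the luminescence signal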
[11] = test system: Vero; assay: mammalian cell viability reduction – secondary assay, cytotoxicity control for West Nile virus antiviral project, dose response (AID 1650); assay type: functional; settings: Chlorocebus sabaeus
[12] = molecular target: T3, Estrogen receptor (Homo sapiens, UniProt P03372);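 further: potency for inhibiting coactivator peptide recruitment to the receptor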
T3 sequence (P03372 whole entry): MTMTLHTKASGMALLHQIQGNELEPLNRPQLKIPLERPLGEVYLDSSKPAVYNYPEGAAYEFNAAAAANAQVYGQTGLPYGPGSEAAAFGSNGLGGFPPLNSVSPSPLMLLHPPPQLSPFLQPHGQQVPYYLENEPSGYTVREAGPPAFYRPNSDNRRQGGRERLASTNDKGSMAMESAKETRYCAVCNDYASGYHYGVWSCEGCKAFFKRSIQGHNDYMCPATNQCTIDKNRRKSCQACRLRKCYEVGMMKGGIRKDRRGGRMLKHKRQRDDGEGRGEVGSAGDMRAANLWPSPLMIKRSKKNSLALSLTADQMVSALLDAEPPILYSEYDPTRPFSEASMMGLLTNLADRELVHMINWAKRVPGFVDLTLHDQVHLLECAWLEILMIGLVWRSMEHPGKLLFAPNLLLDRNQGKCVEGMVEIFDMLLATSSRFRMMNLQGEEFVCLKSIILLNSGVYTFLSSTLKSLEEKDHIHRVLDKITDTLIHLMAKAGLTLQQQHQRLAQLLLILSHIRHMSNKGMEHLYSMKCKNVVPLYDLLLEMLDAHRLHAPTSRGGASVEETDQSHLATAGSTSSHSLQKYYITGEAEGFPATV

[13] = viability of PTEN-deleted HCT116 cells – cell-based, HCT116 PTEN knockout, dose response (AID 1047); assay type: functional;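 further: HCT116 colon tumor cells with PTEN knocked out; cells exposed to compound for 60 hours before readout; potency for loss of cell viability measured by luminescence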
[14] = viability of HCT116 lacking mutant beta-catenin – cell-based, human colon tumor, dose response (AID 1045); assay type: functional;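 further: HCT116 colon tumor cells with beta catenin knocked out; cells exposed to compound for 60 hours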
[15] = molecular target: Protein-tyrosine kinase 2-beta (Homo sapiens, UniProt Q14289);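 further: potency of inhibitors of PYK2 kinase phosphorylation of poly-GT substrate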
[16] = HPDE-C7 pancreatic duct cell viability loss – fluorescence, HTS (AID 430); assay type: functional, cell-based; settings: Homo sapiens
[17] = viability loss of HPDE-C7K cells – cell-based, fluorescence, HTS, primary screen (AID 431); assay type: functional; settings: Homo sapiens
[18] = molecular target: T4, Endoribonuclease toxin MazF (Escherichia coli K-12, UniProt P0AE70); assay: activation of MazEF endoribonuclease cleavage – biochemical, fluorescence, single-stranded RNA substrate, uHTS hits, dose response (AID 588481); assay type: functional
T4 sequence (P0AE70 whole entry): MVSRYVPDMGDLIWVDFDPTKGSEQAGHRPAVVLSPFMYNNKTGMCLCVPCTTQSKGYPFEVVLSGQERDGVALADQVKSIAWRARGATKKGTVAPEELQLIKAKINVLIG

[19] = molecular target: T4, Endoribonuclease toxin MazF; assay: substrate-only fluorescence increase artefacts – biochemical, single-stranded RNase substrate, counter-screen for MazEF activator project, dose response (AID 588502); assay type: functional

Sequence of Protein-tyrosine kinase 2-beta (Q14289 whole entry): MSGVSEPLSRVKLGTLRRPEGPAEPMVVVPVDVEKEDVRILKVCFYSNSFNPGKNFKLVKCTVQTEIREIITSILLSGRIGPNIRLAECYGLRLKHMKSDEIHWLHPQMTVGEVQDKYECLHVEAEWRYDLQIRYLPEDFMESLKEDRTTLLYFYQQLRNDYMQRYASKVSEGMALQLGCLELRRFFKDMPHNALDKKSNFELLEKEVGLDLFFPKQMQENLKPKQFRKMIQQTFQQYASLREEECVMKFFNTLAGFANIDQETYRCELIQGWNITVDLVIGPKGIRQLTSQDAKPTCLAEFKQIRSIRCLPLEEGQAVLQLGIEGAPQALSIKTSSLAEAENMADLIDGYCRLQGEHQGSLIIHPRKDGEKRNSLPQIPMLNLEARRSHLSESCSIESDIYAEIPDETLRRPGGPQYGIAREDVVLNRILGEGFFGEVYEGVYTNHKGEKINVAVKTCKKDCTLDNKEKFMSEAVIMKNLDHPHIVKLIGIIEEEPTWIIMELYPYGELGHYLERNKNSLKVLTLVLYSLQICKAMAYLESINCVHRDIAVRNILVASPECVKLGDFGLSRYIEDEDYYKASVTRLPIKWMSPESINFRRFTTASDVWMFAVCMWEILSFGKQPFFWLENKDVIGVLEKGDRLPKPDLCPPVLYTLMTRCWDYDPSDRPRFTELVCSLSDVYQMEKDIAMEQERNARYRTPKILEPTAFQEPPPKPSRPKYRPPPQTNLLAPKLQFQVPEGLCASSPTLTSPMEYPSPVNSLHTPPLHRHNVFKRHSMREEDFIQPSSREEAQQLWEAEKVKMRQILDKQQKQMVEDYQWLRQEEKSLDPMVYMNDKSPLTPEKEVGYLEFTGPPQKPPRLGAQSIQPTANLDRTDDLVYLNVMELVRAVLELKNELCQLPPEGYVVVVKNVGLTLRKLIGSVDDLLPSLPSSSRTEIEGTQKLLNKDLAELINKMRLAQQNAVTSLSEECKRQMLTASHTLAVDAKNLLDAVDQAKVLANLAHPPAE

With Cc1ccc(Sc2c(CO)c(-c3ccccc3)nn2C)cc1 the EC50 [1] was > 120 µM (not active), the EC50 [2] was > 120 µM (not active) and the EC50 [3] was 1.37 µM (inconclusive). The EC50 [4] was > 3.8 µM (not active) and the EC50 [5] was 0.658 µM (inconclusive).
For COC(=O)c1c(N(S(C)(=O)=O)S(C)(=O)=O)sc2c1CCN(c1ncc(C(F)(F)F)cc1Cl)C2, the CC50 [6] was 16.9 µM (active) and the IC50 [7] was 29.2 µM (active).
In the case of CCCCN(CCCC)S(=O)(=O)c1ccc(NC(=O)c2ccc([N+](=O)[O-])cc2Cl)cc1, the IC50 [8] was 1.42 µM (not active), the IC50 [9] was 12.6 µM (active) and the EC50 [10] was 0.798 µM (active). The CC50 [11] was 10.1 µM (active).
In the case of O=C1CC(/C=C/c2ccco2)=Nc2ccccc2N1, the IC50 [12] was > 50 µM (not active).
With COC(=O)c1ccc(CSc2nc(C)nc3sc(C)c(C)c23)o1 the IC50 [12] was 48.9 µM (not active).
For N#Cc1cccc(NC(=O)CSc2ccc3c4c(cccc24)C(=O)c2ccccc2-3)c1, the EC50 [13] was 15.3 µM (active), the EC50 [14] was 19.6 µM (active) and the IC50 [15] was 4.87 µM (active).
In the case of CCOC(=O)c1ccccc1NC(=O)c1c(F)c(F)c(F)c(F)c1F, the EC50 [16] was 15.7 µM (active) and the EC50 [17] was 13.6 µM (active).
In the case of CCN(CC)c1nc2ccccc2nc1C(C#N)C(=O)NCCc1ccccc1 (configuration not stated), the EC50 [16] was > 20 µM (not active), the EC50 [17] was > 20 µM (not active) and the EC50 [18] was > 99 µM (inactive). The EC50 [19] was > 99 µM (inactive).

From ChEMBL document CHEMBL1201862, “PubChem BioAssay data set” (2004)
